From patent publication US9624235B2, “Compounds and methods for inhibition of AP endonuclease-1/redox factor-1 (HAPE1) activity” (University of Pittsburgh—Of the Commonwealth System of …, priority 2012, dated 2017)
Like-named read-outs stand apart in the source and are kept apart here.

Tests used:
APE-1 [1] = target: T1, APE-1 (Homo sapiens (Human), UniProt P27695); assay: Gel-based excision assay for APE-1 inhibitors; assay type: biochemical; conditions: APE-1 cleaved fragment vs. full length DNA substrate
Description: Screening for APE-1 Inhibitors. […] In this assay, the DNA hairpin substrate has a 6-FAM fluorophore on the 5′-terminus, a DABACYL fluorescence quencher on the 3′-terminus and a THF abasic site located 6 base pairs from the 5′-terminus in the stem region (FIG. 6). APE-1 activity is monitored as an increase in fluorescence due to the release of the 5′-(6-FAM)-GCACT fragment as a function of time. […] In this assay, substrate turnover was calculated from relative intensities of cleaved vs. intact oligomers and correlated with inhibitor concentration.

APE-1 [2] = target: T1, APE-1; assay: Fluorescence binding of 4 to APE-1 protein; conditions: 1 μM APE-1, fluorescence increase
Description: Fluorescence and UV Spectrometry Binding Studies. The fluorescence spectra were measured at room temperature on a Cary Eclipse fluorescence spectrometer (Varian, Palo Alto, Calif.). The fluorescence properties of 1 and 4 were measured in 10 mM HEPES, 0.5 mM MgCl2, 100 mM KCl, 100 mM NaCl, 2% glycerol, in absence or presence of wild type (unmodified) hairpin DNA (5′-[…]-3′) or THF-modified hairpin DNA (5′-CGAXTTCGCAGGACCGAATTCG-3′) or APE-1 protein. A solution of 0.5 μM of either DNA sequence was titrated against 1-10 μM ethidium bromide (EtBr) to determine saturation of EtBr by fluorescence (530 nm excitation with 610 nm emission) and the subsequent displacement of EtBr (4 μM) by 1-20 μM 1 or 4 was also assayed. The APE protein-inhibitor binding fluorescence was assayed by titrating 0.1-20 μM of 4 against 1 μM of APE-1 protein.
Interaction of Inhibitors with APE-1 Protein. To establish whether there is a direct interaction between an inhibitor and APE-1, the fluorescence spectra of 4 was determined in the absence and presence of increasing amounts of the protein.

T98G cells [3] = assay: Short term (72 h) MTS cytotoxicity assay; assay type: cell-based, human
Description: (§1) Cytotoxic Effects of APE-1 Inhibitors on Cultured Human Glioblastoma (T98G) Cells. Human glioblastoma cells (T98G) were maintained in growth medium as described above. […] The cells were allowed to attach and grow for 24 h, and then treated with serial dilutions of the drug for 72 h. After treatment, viable cells were measured by an MTS assay using the CellTiter 96 AQueous kit (Promega) as per manufacturer's instructions. […] The cells were allowed to attach and grow for 24 h and treated with serial dilutions of the drug for 240 h. After treatment, viable cells were measured using the CyQUANT cell proliferation assay kit (Invitrogen) as per manufacturer's instructions.
(§2) Toxicity. It was assumed that inhibition of APE-1 activity would be lead to toxicity since genetic deletion of the protein is lethal to cells. […] The toxicities were also determined in combination with the DNA minor groove methylating agent, MeLex. MeLex efficiently and selectively generates N3-methyladenine, which is converted into an abasic site by a BER glycosylase and/or hydrolytic depurination. The T98G cell line is relatively resistant to DNA damaging anticancer agents due to expression of multiple drug resistance proteins and O^6-alkylguanine-DNA alkyltransferase. […] A goal of the development of APE-1 inhibitors is to determine if they can be used to enhance the activity of DNA alkylating agents.

T98G cells [4] = assay: Long term (10-day) CyQUANT cytotoxicity assay; assay type: cell-based, human
Description: as §1, §2

T98G cells [5] = assay: Potentiation of MeLex cytotoxicity, short term (72 h) MTS assay; assay type: cell-based, human
Description: (§3) Cytotoxic Potentiation of Various DNA Damaging Agents. T98G cells maintained in growth medium were resuspended in fresh growth medium and seeded into 96-well plates at 2000 cells/well (short term cytotoxicity) or 100 cells/well (long term cytotoxicity) as described in the previous section. After 24 h, the cells were treated with serial dilutions of various DNA damaging drugs in absence or presence of APE-1 inhibitors. At the end of the treatment period, cell survival was assayed using CellTiter 96 AQueous or CyQUANT kits for the short- and long-term studies respectively.
as §2

T98G cells [6] = assay: Potentiation of MeLex cytotoxicity, long term (10 d) CyQUANT assay; assay type: cell-based, human
Description: as §3, §2

[7] = system: NCI panel of 60-cell lines; assay: NCI 60 cell line growth inhibition; assay type: cell-based; conditions: NCI 60 cell lines; read-out: average growth inhibition (GI50) in all the lines
leukemia cell lines = assay: NCI 60 cell line growth inhibition; assay type: cell-based
MOLT-4 = assay: NCI 60 cell line growth inhibition; assay type: cell-based; conditions: Homo sapiens; MOLT-4 line
SK-MEL-5 (melanoma) line = assay: NCI 60 cell line growth inhibition; assay type: cell-based; conditions: Homo sapiens; 4 alone, SK-MEL-5 line

T1 sequence (P27695 whole entry, the tested form may be a part): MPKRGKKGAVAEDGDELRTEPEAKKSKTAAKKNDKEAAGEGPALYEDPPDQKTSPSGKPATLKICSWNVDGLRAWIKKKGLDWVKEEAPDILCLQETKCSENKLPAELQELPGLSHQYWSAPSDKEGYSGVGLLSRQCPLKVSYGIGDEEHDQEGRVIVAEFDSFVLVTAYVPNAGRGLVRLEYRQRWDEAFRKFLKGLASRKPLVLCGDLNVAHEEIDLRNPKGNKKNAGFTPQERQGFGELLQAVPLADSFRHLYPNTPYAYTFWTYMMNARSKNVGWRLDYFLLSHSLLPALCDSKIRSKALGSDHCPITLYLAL

`CCn1c2ccccc2c2cc(/C=N/Nc3cc(C)nc4cc5c(cc34)OCO5)ccc21` [Compound 4] was tested, and the IC50 (APE-1 [1]) was 4.1 µM, the Kd (APE-1 [2]) was 6.15 µM and the LD10 concentration (T98G cells [3]; 72 h MTS assay) was 0.25 µM. It also gave an LD50 (T98G cells [3]; MTS assay, T98G) of 960 nM, an LD50 / toxicity (T98G cells [4]; long term (clonogenic) assay, T98G) of 190 nM and an LD10 concentration (T98G cells [4]; long term assay) of 0.08 µM. The “LD50 of MeLex in the presence of LD10 concentration of inhibitor” value (T98G cells [5]; 72 h MTS assay) was 49 µM, the “maximum potentiation of MeLex” value (T98G cells [5]; short term assay) was “approximately 5 fold” and the “LD50 of MeLex in the presence of LD10 concentration of inhibitor” value (T98G cells [6]) was 1.6 µM. The “maximum potentiation of MeLex” value (T98G cells [6]) was “approximately 5 fold”, the GI50 [7] was 4.4 ± 2.6 µM and the GI50 (leukemia cell lines; 60 cell, 6 leukemia cell lines, read-out: GI50 overall average leukemia cell lines) was 1.8 ± 2.9 µM. For the same compound, the GI50 (leukemia cell lines; Homo sapiens, HL-60 omitted, read-out: GI50 leukemia cell lines, HL-60 line omitted) was 0.64 ± 0.4 µM, the GI50 (MOLT-4) was 0.133 µM and the GI50 (SK-MEL-5 (melanoma) line) was 4 µM.
